Eight compounds from patent US20240130988A1, “Use of stilbene compounds in the preparation of anti-tumor drugs” (Guangzhou AnHao Pharmaceutical Technology CO., LTD., priority 2022, published 2024) can be followed below.

The test system of assay [1] is LLC (mouse lung cancer cells). Put plainly: Enrichment of CD8+ cytotoxic T lymphocytes in tumor tissue, Lewis non-small cell lung cancer model of mice. The note with it: 400 mg/kg ip once a day for 10 days; for The ratio of CD8^+ in total immune cells of tumor tissues (%): flow cytometry; for The ratio of distribution area in tumor tissues (%): CD8+ immunohistochemistry. Type of assay: in vivo. How it is done: LLC (mouse lung cancer cells) were a mouse Lewis lung cancer cells.
The modeling method for LLC cell lung cancer in mice was as follows:
LLC cells were cultured in the general medium containing 10% fetal bovine serum and 100 μg/mL of double antibody (penicillin±streptomycin), and then cultivated in a 37° C., 5% CO2 cell incubator for routine incubation. LLC cells, that had grown to logarithmic phase, were digested with 0.25% trypsin (containing EDTA) to form a cell suspension, which was centrifuged at 1000 rpm/min for 3 min. The supernatant was discarded, and cell precipitates were collected, that were resuspended in culture medium without serum and double antibody. The cell suspension was further centrifuged to adjust the volume under the same conditions with the aid of cell counting, so as to prepare a cell suspension at a concentration of […] was injected into the right abdomen of each mouse, to complete the inoculation of tumor cells. The tumor was allowed to grew about 10 days, and the volume reached around 100 mm^3, before the mice were treated with test compounds.
Drug preparation: compounds 1-13 of the present invention were respective prepared into an injection with injection water.
Experimental methods: The model mice with LLC cell lung cancer were treated by intraperitoneal administration of 400 mg/kg injection containing the compound of the present invention. The model mice were divided into a negative control group (model mice only receiving equal volume of injection water by intraperitoneal administration) and treatment groups (model mice receiving the injection prepared with the compound of the present invention by intraperitoneal administration). The intraperitoneal injection regimen was carried out by injecting once a day at the pre-determined time. Before administration, the mice were weighed, and then treated with the injection at a dosage of 10 mL/kg, After successive administration for 10 days, that is, on the 10th day after receiving treatment, the mice were sacrificed, and the subcutaneous tumors were stripped to detect the ratio of cytotoxic T lymphocyte antigen CD8^+ in tumor tissues of the negative group and the treatment group by flow cytometry.
CD8^+ tumor-infiltrating lymphocytes in tumor tissues were detected by flow cytometry. The specific steps were as follows:
The mice were sacrificed, and then the abdominal epidermis of the mice was cut open using ophthalmic scissors, to fully expose the subcutaneous tumors. The subcutaneous tumor tissues on the right side of the mouse's abdomen were gradually peeled off with tweezers and ophthalmic scissors. After rinsing with PBS, the stripped tumor tissues were cut into about 1 mm using ophthalmic scissors, and then placed in 3 mL of PBS buffer containing 100 μg/mL of hyaluronidase. A centrifuge tube containing a dispersed liquid was placed in a water bath and kept at 37° C. for 20 min. A pipette was used to blow and shake the digestive tumor tissues every 5 minutes to fully digest. The dispersed liquid containing undigested tumor tissues was filtered through a 70 μm stainless steel cell screen, and the remaining undigested tumor tissues were ground using a push rod of 20 mL syringe on 70 μm cell screen and rinsed 5 times with 1 mL of PBS while grinding. The cell suspension passing the cell screen was transferred to a 15 mL centrifuge tube, and centrifuged at 4000 rpm for 3 min. Then, cell precipitates were collected, to which was added 2 mL of red cell lysis buffer, and rested for 10 min, followed by centrifuging at 4000 rpm for 3 min. After washing with PBS, the cells were resuspended by adding 2-3 mL of PBS.
An appropriate amount of cell suspension was used as the sample for flow cytometry, and after counting, the cell suspension was adjusted to have a concentration of 5×10^6/mL. 100 μL of cell suspension was added to a test tube with a pipettor. […]

The subject of assay [2] is nonfusion human umbilical vein endothelial cells (HUVEC). Put plainly: TMT quantitative proteomics on nonfusion HUVEC. It counts as cell-based. The note with it: 10 μM; for Differentially expressed proteins: more than 1.5 times or less than 0.67 times vs control; for Down-regulation / Up-regulation: number of proteins. As to the method: Nonfusion human umbilical vein endothelial cells (HUVEC) were used to simulate new tumor blood vessels, while confluent HUVECs were used to simulate normal blood vessels, to construct experimental models. Two different HUVECs were treated with the compound at the same dosage of 10 μM, to simulate the fusion cell state, and proteome samples were prepared. After preparation of peptide segments, the segments were labelled with TMT, and a quantitative proteomics analysis was carried out. The efficiency of TMT labeling was higher than 99.4%, and a total of 28372 peptide segments from 4934 proteins were characterized using a strict 1% FDR limit. Among them, 4909 quantifiable proteins were identified, indicating reliable quality. The nonfusion treatment groups and the fusion treatment groups were compared with their respective control groups, and the control group was used as a reference, with a significant difference of more than 1.5 times or less than 0.67 times as the protein score standard.
The total cell proteins of the samples in nonfusion cell groups and fusion cell groups were extracted separately, and 2 μg of protein samples were subjected to quality analysis, The quantitative proteomics experiments were carried out, and the protein concentration assay was performed by quantitative grayscale measurement.
Data analysis: The human protein database (Scientific name: Homo sapiens, 9606) was downloaded from UniProt, MaxQuant (v 1.5.5.1) search engine was used to search for the database. A total of 4934 proteins (4909 quantitative proteins) and 28372 peptide segments were identified by TMT quantitative proteomics experiments, with a labeling efficiency of more than 99%, and the complete digestion occupied 86.3%.

The next assay has as its system human lung cancer A549. Kind of assay: Human lung cancer A549 transplanted tumors in nude mice. Type of assay: in vivo, BALB/C nude mice. The note with it: A549, 400 mg/kg ig × 14; for inhibition in vivo at 400 mg/kg: Mus musculus, po, read-out: Tumor inhibitory rate %. How it is done:
In this experiment, a human lung cancer A549 model transplanted into nude mice was selected to study the anti-tumor effect of test compounds. The mice were treated at a dosage of 400 mg/kg by gavage for 14 days, and the tumor inhibition rate against human lung cancer A549 was measured.
Preparation: The compound was prepared as the solution at the desired concentration with distilled water, prior to administration.
Animal strain: BALB/C nude mice (SPF grade), weight: 19-21 g, gender: male. Number of animals in each treatment group: 8; Number of animals in the control group: >12.
Lung cancer A549 tumor blocks with good growth were chosen and cut into uniform small pieces of 3 mm under sterile conditions, and then subcutaneously inoculated into the right armpit of each mouse with a cannula. These mice were divided into 9 groups, 8 mice for each treatment group, while more than 12 mice were included in the control group.
14 days after inoculation, the average volume of the tumor mass was about 100 mm^3. The animals were regrouped based on the size of the tumor, and the mice with tumors that were too large and too small were eliminated. For each group, the average volume of tumors was basically the same, and then the mice were treated with test compounds. The mice in the treatment groups were administered once a day by gavage for 14 successive days, at a dosage of 0.5 mL/20 g body weight; the mice in the control group were given the same volume of physiological saline. From the 14th day of inoculation, the long diameter a (mm) of the tumor, together with the perpendicular short diameter b (mm), was measured using a digital electronic caliper, twice a week. The calculation formula of tumor volume is: TV=ab^2/2, and the formula for calculating the relative tumor volume is RTV=Vt/Vo, wherein Vo denotes the tumor volume measured when the mice were divided into groups (i.e. d1), and Vt is the tumor volume from each measurement.
The result determination is based on the following formula: […]

The test system of assay [3] is LLC (mouse lung cancer cells). Kind of assay: Enrichment of CD8+ cytotoxic T lymphocytes in tumor tissue, Lewis non-small cell lung cancer model of mice. It counts as in vivo. The note with it: 400 mg/kg ip once a day for 10 days, CD8+ immunohistochemistry.

As for `COc1ccc(/C=C(/C(=O)O)c2cc(OC)c(OC)c(OC)c2)c(O)c1O` [Compound 1, (E)-3-(2,3-dihydroxy-4-methoxyphenyl)-2-(3,4,5-trimethoxylphenyl)acrylic acid], in assay [1] (400 mg/kg), the “The ratio of CD8^+ in total immune cells of tumor tissues (%)” value (“The ratio of CD8^+ … (%)” for short) is 0.0605 ± 0.0124%. In assay [2], this compound had a Differentially expressed proteins of 323, a Down-regulation of 296 and an Up-regulation of 7. Moreover, in the assay with human lung cancer A549, the “RTV (d 22)” value turned out to be 4.27 ± 0.48 and the inhibition in vivo at 400 mg/kg is 63.6%. Moreover, the “The ratio of distribution area in tumor tissues (%)” value (“The ratio … in tumor tissues (%)” for short) in assay [3] (400 mg/kg) was found to be 6.265 ± 0.3673%.

Regarding `COc1cc(/C=C(/C(=O)O)c2cc(OC)c(OC)c(OC)c2)cc(OC)c1` [Compound 3, (E)-3-(3,5-dimethoxyphenyl)-2-(3,4,5-trimethoxyphenyl)acrylic acid], in assay [1], the “The ratio … in tumor tissues (%)” value turned out to be 6.731 ± 0.5692% and the “The ratio of CD8^+ … (%)” value is listed as 0.0762 ± 0.0103%. Further, in assay [2], the Differentially expressed proteins was 318, the Down-regulation amounted to 312 and the Up-regulation was 6. In the assay with human lung cancer A549, the “RTV (d 22)” value is reported as 4.52 ± 0.76 and the inhibition in vivo at 400 mg/kg was 61.5%.

With `COc1ccc(/C=C(/C(=O)O)c2cc(OC)c(OC)c(OC)c2)cc1F` [Compound 4, (E)-3-(3-fluoro-4-methoxyphenyl)-2-(3,4,5-trimethoxyphenyl)acrylic acid], in assay [1], the “The ratio … in tumor tissues (%)” value is given as 6.872 ± 0.7633% and the “The ratio of CD8^+ … (%)” value came out at 0.0787 ± 0.0122%. For the same compound, in assay [2], the Differentially expressed proteins was found to be 307, the Down-regulation is recorded as 302 and the Up-regulation is recorded as 5. In the assay on human lung cancer A549, the “RTV (d 22)” value was 5.23 ± 1.43 and the inhibition in vivo at 400 mg/kg was 55.5%.

Turning to `COc1ccc(/C=C(/C(=O)O)c2cc(OC)c(OC)c(OC)c2)cc1O` [Compound 6, (E)-3-(3-hydroxy-4-methoxyphenyl)-2-(3,4,5-trimethoxyphenyl)acrylic acid], the “The ratio of CD8^+ … (%)” value in assay [1] worked out at 0.0814 ± 0.0118%. Moreover, in assay [2], the Differentially expressed proteins turned out to be 312, the Down-regulation turned out to be 307 and the Up-regulation was found to be 5. In the assay on human lung cancer A549, the “RTV (d 22)” value was 2.51 ± 0.94, the “Tumor inhibitory rate %” value is listed as “best inhibitory effect on lung cancer” and the inhibition in vivo at 400 mg/kg was found to be 78.6%. The “The ratio … in tumor tissues (%)” value in assay [3] came out at 7.249 ± 0.6689%.

With `COc1cc(/C(=C\c2cc(O)c(OC)c(F)c2)C(=O)O)cc(OC)c1OC` [Compound 8, (E)-3-(5-fluoro-3-hydroxy-4-methoxyphenyl)-2-(3,4,5-trimethoxyphenyl)acrylic acid], the “The ratio of CD8^+ … (%)” value in assay [1] is on record as 0.0735 ± 0.0127%. Also, in assay [2], the Differentially expressed proteins was 317, the Down-regulation is on record as 311 and the Up-regulation worked out at 6. Also, in the assay with human lung cancer A549, the “RTV (d 22)” value is listed as 4.22 ± 0.75 and the inhibition in vivo at 400 mg/kg worked out at 64.1%. The “The ratio … in tumor tissues (%)” value in assay [3] amounted to 6.543 ± 0.7256%.

In the case of `COc1ccc(/C=C(/C(=O)O)c2cc(OC)c(OC)c(OC)c2)c(F)c1O` [Compound 9, (E)-3-(2-fluoro-3-hydroxy-4-methoxyphenyl)-2-(3,4,5-trimethoxyphenyl)acrylic acid], the “The ratio of CD8^+ … (%)” value in assay [1] is 0.0753 ± 0.0123%. In assay [2], this compound yielded a Differentially expressed proteins of 296, a Down-regulation of 291 and an Up-regulation of 5. Also, in assay [3], the “The ratio … in tumor tissues (%)” value came out at 6.258 ± 0.6573%.

As for `COc1cc(/C=C(/C(=O)[O-])c2cc(OC)c(OC)c(OC)c2)cc(OC)c1F.[K+]` [Compound 10], in assay [1], the “The ratio … in tumor tissues (%)” value came out at 5.847 ± 0.6349% and the “The ratio of CD8^+ … (%)” value is given as 0.0623 ± 0.0114%. In assay [2], the Differentially expressed proteins is 315, the Down-regulation was determined as 309 and the Up-regulation was 6.

As for `COc1cc(/C(=C\c2cc(O)c(OC)c(O)c2)C(=O)O)cc(OC)c1OC` [Compound 11, (E)-3-(3,5-dihydroxy-4-methoxyphenyl)-2-(3,4,5-trimethoxyphenyl)acrylic acid], in assay [1], the “The ratio of CD8^+ … (%)” value turned out to be 0.0653 ± 0.0122%. In assay [2], this compound registered a Differentially expressed proteins of 317, a Down-regulation of 306 and an Up-regulation of 11. For the same compound, in the assay with human lung cancer A549, the “RTV (d 22)” value was determined as 4.07 ± 0.51 and the inhibition in vivo at 400 mg/kg was found to be 65.4%. Besides, the “The ratio … in tumor tissues (%)” value in assay [3] was determined as 5.735 ± 0.5952%.
